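Briefly, cells in 96-well plates were exposed to five compound concentrations for 48 h, and endpoints were estimated by linear interpolation. Abbreviation: GI50, concentration required for 50% inhibition of growth. At the TGI there is no net growth.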
Assays:
Assay in all cases: NCI-60 cell line screen, 48 h
786-0 renal = system: 786-0 renal
A498 renal = system: A498 renal
A549 NSCLC = system: A549 NSCLC
ACHN renal = system: ACHN renal
CCRF-CEM leukemia = system: CCRF-CEM leukemia
COLO 205 colon = system: COLO 205 colon
DMS 273 small cell lung = system: DMS 273 small cell lung
EKVX NSCLC = system: EKVX NSCLC
HCC-2998 colon = system: HCC-2998 colon
HCT-116 colon = system: HCT-116 colon
HCT-15 colon = system: HCT-15 colon
HL-60(TB) leukemia = system: HL-60(TB) leukemia
HOP-18 NSCLC = system: HOP-18 NSCLC
HOP-62 NSCLC = system: HOP-62 NSCLC
HOP-92 NSCLC = system: HOP-92 NSCLC
HT29 colon = system: HT29 colon
IGROV1 ovarian = system: IGROV1 ovarian
K-562 leukemia = system: K-562 leukemia
KM12 colon = system: KM12 colon
KM20L2 colon = system: KM20L2 colon
LOX IMVI melanoma = system: LOX IMVI melanoma
LXFL 529 NSCLC = system: LXFL 529 NSCLC
M14 melanoma = system: M14 melanoma
M19-MEL melanoma = system: M19-MEL melanoma
MALME-3M melanoma = system: MALME-3M melanoma
MOLT-4 leukemia = system: MOLT-4 leukemia
NCI-H226 lung = system: NCI-H226 lung
NCI-H23 lung = system: NCI-H23 lung
NCI-H460 lung = system: NCI-H460 lung
NCI-H522 lung = system: NCI-H522 lung
OVCAR-3 ovarian = system: OVCAR-3 ovarian
OVCAR-4 ovarian = system: OVCAR-4 ovarian
OVCAR-5 ovarian = system: OVCAR-5 ovarian
OVCAR-8 ovarian = system: OVCAR-8 ovarian
RXF 393 renal = system: RXF 393 renal
SF-268 CNS = system: SF-268 CNS
SF-295 CNS = system: SF-295 CNS
SF-539 CNS = system: SF-539 CNS
SK-MEL-2 melanoma = system: SK-MEL-2 melanoma
SK-MEL-28 melanoma = system: SK-MEL-28 melanoma
SK-MEL-5 melanoma = system: SK-MEL-5 melanoma
SK-OV-3 ovarian = system: SK-OV-3 ovarian
SN12C renal = system: SN12C renal
SNB-19 CNS = system: SNB-19 CNS
SNB-75 CNS = system: SNB-75 CNS
SNB-78 CNS = system: SNB-78 CNS
SR leukemia = system: SR leukemia
SW-620 colon = system: SW-620 colon
TK-10 renal = system: TK-10 renal
U251 CNS = system: U251 CNS
UACC-257 melanoma = system: UACC-257 melanoma
UACC-62 melanoma = system: UACC-62 melanoma
UO-31 renal = system: UO-31 renal
BT-549 breast = system: BT-549 breast
DLD-1 colon = system: DLD-1 colon
DU-145 prostate = system: DU-145 prostate
HS 578T breast = system: HS 578T breast
MCF7 breast = system: MCF7 breast
MDA-MB-231 breast = system: MDA-MB-231 breast
MDA-MB-435 = system: MDA-MB-435
MDA-N = system: MDA-N
NCI/ADR-RES ovarian = system: NCI/ADR-RES ovarian
PC-3 prostate = system: PC-3 prostate
RPMI-8226 leukemia = system: RPMI-8226 leukemia

`C[CH2][Sn]([CH2]C)([O]C(=O)c1c(F)cccc1F)[O][Sn]([CH2]C)([CH2]C)[O]C(=O)c1c(F)cccc1F` showed a GI50 (786-0 renal) of 16 µM, a TGI (786-0 renal) of 29.7 µM and a GI50 (A498 renal) of 15 µM. The TGI (A498 renal) was 28.3 µM, the GI50 (A549 NSCLC) was greater than 100 µM and the TGI (A549 NSCLC) was greater than 100 µM. The GI50 (ACHN renal) was 19.1 µM, the TGI (ACHN renal) was 33.2 µM and the GI50 (CCRF-CEM leukemia) was 3.85 µM. It also gave a TGI (CCRF-CEM leukemia) of 17.1 µM, a GI50 (COLO 205 colon) of 12.6 µM and a TGI (COLO 205 colon) of 25.1 µM. For the same molecule, the GI50 (DMS 273 small cell lung) was 18.6 µM, the TGI (DMS 273 small cell lung) was 35.2 µM and the GI50 (EKVX NSCLC) was 16.8 µM. The TGI (EKVX NSCLC) was 30.6 µM, the GI50 (HCC-2998 colon) was 42.8 µM and the TGI (HCC-2998 colon) was greater than 100 µM. It also gave a GI50 (HCT-116 colon) of 19 µM, a TGI (HCT-116 colon) of 34 µM and a GI50 (HCT-15 colon) of 17.9 µM. It also gave a TGI (HCT-15 colon) of 32.5 µM, a GI50 (HL-60(TB) leukemia) of 26.5 µM and a TGI (HL-60(TB) leukemia) of 76.7 µM. For the same molecule, the GI50 (HOP-18 NSCLC) was 22.6 µM, the TGI (HOP-18 NSCLC) was 37.1 µM and the GI50 (HOP-62 NSCLC) was 20.8 µM. The TGI (HOP-62 NSCLC) was 36.9 µM, the GI50 (HOP-92 NSCLC) was 18.8 µM and the TGI (HOP-92 NSCLC) was 32.9 µM. It also gave a GI50 (HT29 colon) of 19.8 µM, a TGI (HT29 colon) of 42.2 µM and a GI50 (IGROV1 ovarian) of 69 µM. The TGI (IGROV1 ovarian) was greater than 100 µM, the GI50 (K-562 leukemia) was 8.61 µM and the TGI (K-562 leukemia) was 37.5 µM. For the same molecule, the GI50 (KM12 colon) was greater than 100 µM, the TGI (KM12 colon) was greater than 100 µM and the GI50 (KM20L2 colon) was 26.7 µM. For the same molecule, the TGI (KM20L2 colon) was 68.8 µM, the GI50 (LOX IMVI melanoma) was 16.1 µM and the TGI (LOX IMVI melanoma) was 29.9 µM. The GI50 (LXFL 529 NSCLC) was 5.44 µM, the TGI (LXFL 529 NSCLC) was 18.4 µM and the GI50 (M14 melanoma) was 18.1 µM. It also gave a TGI (M14 melanoma) of 32 µM, a GI50 (M19-MEL melanoma) of 16.3 µM and a TGI (M19-MEL melanoma) of 30.9 µM. The GI50 (MALME-3M melanoma) was 14.9 µM, the TGI (MALME-3M melanoma) was 28.8 µM and the GI50 (MOLT-4 leukemia) was 23.4 µM. The TGI (MOLT-4 leukemia) was 88.3 µM, the GI50 (NCI-H226 lung) was 22 µM and the TGI (NCI-H226 lung) was 36.7 µM. It also gave a GI50 (NCI-H23 lung) of 15.9 µM, a TGI (NCI-H23 lung) of 29.3 µM and a GI50 (NCI-H460 lung) of 20 µM. The TGI (NCI-H460 lung) was 40.6 µM, the GI50 (NCI-H522 lung) was 1.1 µM and the TGI (NCI-H522 lung) was 2.36 µM. It also gave a GI50 (OVCAR-3 ovarian) of 25.9 µM, a TGI (OVCAR-3 ovarian) of 78.1 µM and a GI50 (OVCAR-4 ovarian) of 18.8 µM. It also gave a TGI (OVCAR-4 ovarian) of 33 µM, a GI50 (OVCAR-5 ovarian) of 17.9 µM and a TGI (OVCAR-5 ovarian) of 31.8 µM. The GI50 (OVCAR-8 ovarian) was 17.2 µM, the TGI (OVCAR-8 ovarian) was 30.9 µM and the GI50 (RXF 393 renal) was 13.7 µM. It also gave a TGI (RXF 393 renal) of 26.6 µM, a GI50 (SF-268 CNS) of 15.3 µM and a TGI (SF-268 CNS) of 28.6 µM. For the same molecule, the GI50 (SF-295 CNS) was 20.1 µM, the TGI (SF-295 CNS) was 34.5 µM and the GI50 (SF-539 CNS) was 14.9 µM. The TGI (SF-539 CNS) was 28.1 µM, the GI50 (SK-MEL-2 melanoma) was 14.4 µM and the TGI (SK-MEL-2 melanoma) was 27.7 µM. The GI50 (SK-MEL-28 melanoma) was 15.6 µM, the TGI (SK-MEL-28 melanoma) was 29 µM and the GI50 (SK-MEL-5 melanoma) was 18.2 µM. It also gave a TGI (SK-MEL-5 melanoma) of 32.3 µM, a GI50 (SK-OV-3 ovarian) of 41.3 µM and a TGI (SK-OV-3 ovarian) greater than 100 µM. The GI50 (SN12C renal) was 16 µM, the TGI (SN12C renal) was 29.5 µM and the GI50 (SNB-19 CNS) was 17.1 µM. The TGI (SNB-19 CNS) was 30.8 µM, the GI50 (SNB-75 CNS) was 16.2 µM and the TGI (SNB-75 CNS) was 29.7 µM. For the same molecule, the GI50 (SNB-78 CNS) was 15.8 µM, the TGI (SNB-78 CNS) was 32.4 µM and the GI50 (SR leukemia) was 26.6 µM. For the same molecule, the TGI (SR leukemia) was greater than 100 µM, the GI50 (SW-620 colon) was 16.3 µM and the TGI (SW-620 colon) was 29.9 µM. The GI50 (TK-10 renal) was 19.2 µM, the TGI (TK-10 renal) was 33.3 µM and the GI50 (U251 CNS) was 17.4 µM. For the same molecule, the TGI (U251 CNS) was 31.2 µM, the GI50 (UACC-257 melanoma) was 16.5 µM and the TGI (UACC-257 melanoma) was 30.2 µM. The GI50 (UACC-62 melanoma) was 17.6 µM, the TGI (UACC-62 melanoma) was 31.4 µM and the GI50 (UO-31 renal) was 36 µM. The TGI (UO-31 renal) was greater than 100 µM.

`COc1ccc(/C=N/N/C(O)=c2/sc(=C(C#N)C#N)n(-c3ccccc3)c2=N)cc1` was tested, and the TGI (786-0 renal) was greater than 100 µM, the TGI (A498 renal) was greater than 100 µM and the TGI (A549 NSCLC) was greater than 100 µM. It also gave a TGI (ACHN renal) greater than 100 µM, a TGI (BT-549 breast) greater than 100 µM and a TGI (CCRF-CEM leukemia) greater than 100 µM. The TGI (COLO 205 colon) was greater than 100 µM, the TGI (DLD-1 colon) was greater than 100 µM and the TGI (DU-145 prostate) was greater than 100 µM. For the same molecule, the TGI (EKVX NSCLC) was greater than 100 µM, the TGI (HCC-2998 colon) was greater than 100 µM and the TGI (HCT-116 colon) was greater than 100 µM. It also gave a TGI (HCT-15 colon) greater than 100 µM, a TGI (HL-60(TB) leukemia) greater than 100 µM and a TGI (HOP-18 NSCLC) greater than 100 µM. The TGI (HOP-62 NSCLC) was greater than 94 µM, the TGI (HOP-92 NSCLC) was greater than 70.8 µM and the TGI (HS 578T breast) was greater than 100 µM. It also gave a TGI (HT29 colon) greater than 100 µM, a TGI (IGROV1 ovarian) greater than 100 µM and a TGI (K-562 leukemia) greater than 100 µM. For the same molecule, the TGI (KM12 colon) was greater than 100 µM, the TGI (LXFL 529 NSCLC) was greater than 100 µM and the TGI (M14 melanoma) was greater than 100 µM. For the same molecule, the TGI (M19-MEL melanoma) was greater than 100 µM, the TGI (MALME-3M melanoma) was greater than 100 µM and the TGI (MCF7 breast) was greater than 100 µM. It also gave a TGI (MDA-MB-231 breast) greater than 100 µM, a TGI (MDA-MB-435) greater than 100 µM and a TGI (MDA-N) greater than 100 µM. The TGI (MOLT-4 leukemia) was greater than 100 µM, the TGI (NCI-H226 lung) was greater than 100 µM and the TGI (NCI-H23 lung) was greater than 100 µM. For the same molecule, the TGI (NCI-H460 lung) was greater than 100 µM, the TGI (NCI-H522 lung) was greater than 100 µM and the TGI (NCI/ADR-RES ovarian) was greater than 100 µM. For the same molecule, the TGI (OVCAR-3 ovarian) was greater than 100 µM, the TGI (OVCAR-4 ovarian) was greater than 100 µM and the TGI (OVCAR-5 ovarian) was greater than 100 µM. For the same molecule, the TGI (OVCAR-8 ovarian) was greater than 100 µM, the TGI (PC-3 prostate) was greater than 100 µM and the TGI (RPMI-8226 leukemia) was greater than 100 µM. The TGI (SF-268 CNS) was greater than 100 µM, the TGI (SF-295 CNS) was greater than 70.5 µM and the TGI (SF-539 CNS) was greater than 88.6 µM. It also gave a TGI (SK-MEL-28 melanoma) greater than 100 µM, a TGI (SK-MEL-5 melanoma) greater than 100 µM and a TGI (SK-OV-3 ovarian) greater than 100 µM. The TGI (SN12C renal) was greater than 100 µM, the TGI (SNB-19 CNS) was greater than 100 µM and the TGI (SNB-75 CNS) was 38.3 µM. The TGI (SR leukemia) was greater than 100 µM, the TGI (SW-620 colon) was greater than 100 µM and the TGI (TK-10 renal) was greater than 100 µM. The TGI (U251 CNS) was greater than 100 µM, the TGI (UACC-257 melanoma) was greater than 100 µM and the TGI (UACC-62 melanoma) was greater than 100 µM. The TGI (UO-31 renal) was greater than 100 µM.

From PubChem BioAssay (NCI)
